Here are results for 14 molecules from patent US10392398B2, “Inhibitors of Late SV40 Factor (LSF) as cancer chemotherapeutics” (TRUSTEES OF BOSTON UNIVERSITY, priority 2010, dated 2019).

Holding throughout (type): cell-based
One assay has as its system NIH/3T3 cells. Description: Cell proliferation assay (MTS), NIH/3T3. Conditions: for IC50 / GI50: Mus musculus, NIH3T3; for IC50: Example 7, FIG. 8, read-out: growth inhibition of NIH/3T3 Cell Line IC50; for antiproliferative activity relative to comparator: against each cell line (NIH/3T3, HeLa, A549), in words. The method, then:
(§1) Cells were plated at 3×10^4 cells/mL, A549 and HeLa, and 1×10^4 cells/mL, NIH/3T3, in 96-well plates and incubated for 24 h to allow for cell adhesion. LSF-library compounds were dissolved in DMSO, serial diluted in appropriate medium and added to cells in triplicate (2 plates). DMSO was added to control wells at a final concentration of 1%. After 72 h incubation in the presence of compound, confluent cells were assayed for growth proliferation with CellTiter 96® AQueous One Solution Cell Proliferation Assay (MTS) (Promega) according to the manufacturer's protocol. Plates were read at 490 nm on a microplate reader, and IC50 values were determined as the percentage of compound-treated cell growth to control cell growth. HCC cells—one hour after plating HCC cells onto 96-well plates, compound or vehicle (DMSO) was added to the desired concentrations, keeping DMSO at 0.5%. At indicated time points, cell viability was assayed using the CellTiter 96® Non-Radioactive Cell Proliferation Assay (MTT) (Promega).
(§2) QGY-7703 and A549 cells were cultured at 37° C. in 5% CO2 in DMEM (Dulbecco's modification of Eagle's Medium; Corning) supplemented with 10% Fetal Bovine Serum (FBS; Invitrogen). NIH-3T3 cells were cultured at 37° C. in 5% CO2 in DMEM supplemented with 10% Fetal Calf Serum (FCS; Atlanta Biologicals). For cell viability assays, 1,500 cells were seeded in 96-well plates and treated with FQI-34 or vehicle (DMSO) at appropriate concentrations (DMSO at 1%) after 20 hours. After 72-hour incubation with compound or vehicle, cell growth was assessed via the Promega CellTiter 96® AQueous One Solution Cell Proliferation Assay, a colorimetric method to determine the number of viable cells. 20 μL of the CellTiter 96® AQueous One Solution Reagent was added directly into cultured wells and incubated for one hour, after which the absorbance at 490 nm was read with a 96-well plate reader (Opys MR Microplate Reader). The CellTiter 96® AQueous One Solution contains an MTS tetrazolium compound which is bioreduced by cells into a colored formazan product that is soluble in tissue culture medium. The quantity of formazan product as measured by absorbance is directly proportional to the number of living cells in culture. GI50 values were determined from plots of the percentage of compound-treated cell growth to vehicle cell growth vs. compound concentration (GraphPad Prism; non-linear regression 4-parameter curve fit with variable slope).

The subject of another assay is HeLa cells. Description: Cell proliferation assay (MTS), HeLa. The following applies: Homo sapiens; for IC50: HeLa, Example 7, FIG. 8, read-out: growth inhibition of HeLa Cell Line IC50; for GI50: 72 h, MTS. The protocol:
as §1

For another assay, the system named is A549 cells. Description: Cell proliferation assay (MTS), A549. The following applies: Homo sapiens; for IC50: Example 7, FIG. 8, read-out: growth inhibition of A549 Cell Line IC50; for GI50: 72 h, MTS, read-out: GI50 (μM) A549. The method, then: as §1, §2
A further assay addresses T1, LSF (Homo sapiens, UniProt Q12800).
T1 sequence (Q12800 1-502): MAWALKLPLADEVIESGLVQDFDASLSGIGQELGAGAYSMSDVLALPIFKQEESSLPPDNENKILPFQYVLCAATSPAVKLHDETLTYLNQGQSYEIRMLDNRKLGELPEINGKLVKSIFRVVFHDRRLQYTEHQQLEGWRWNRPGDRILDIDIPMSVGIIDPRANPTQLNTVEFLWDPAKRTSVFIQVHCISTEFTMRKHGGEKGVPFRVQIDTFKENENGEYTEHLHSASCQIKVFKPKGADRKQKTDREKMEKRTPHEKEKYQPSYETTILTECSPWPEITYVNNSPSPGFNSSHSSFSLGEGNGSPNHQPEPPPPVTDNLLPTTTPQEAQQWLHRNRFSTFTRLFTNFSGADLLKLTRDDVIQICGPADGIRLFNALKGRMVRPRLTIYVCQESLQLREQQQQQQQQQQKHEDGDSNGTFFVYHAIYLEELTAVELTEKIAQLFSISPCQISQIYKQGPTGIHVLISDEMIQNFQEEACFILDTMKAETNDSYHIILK
Description: LSF-dependent luciferase reporter assay in NIH 3T3 cells. Also noted: expressed in transfected cells; host or cells: NIH 3T3. Conditions: for IC50: NIH 3T3 cells, dual luciferase, ranges where few concentrations tested, read-out: IC50 (μM) LSF-dependent reporter assat NIH 3T3; for activity in the LSF luciferase reporter assay relative to comparator: in words. The method, then: NIH 3T3 cells were transfected with the expression construct pEF1α-LSF, a LSF expression vector^6,20; the reporter construct pGL3B-WT4E1b, a firefly luciferase reporter vector driven by LSF^12; phRL-TK, a control renilla luciferase reporter vector; and pEFGP, essentially as previously described^12. Five hours after transfection, either vehicle (DMSO) or FQI compound was added, keeping DMSO at 0.5%. Cell extracts were harvested 36 hours post-transfection and firefly and renilla luciferase activities measured via a dual luciferase assay (Promega). Five μl of extract was mixed with 30 μl of luciferase assay reagent (Promega), and luminescence measured for 10 seconds using a 20/20n luminometer (Turner Biosystems). Subsequently, 30 μl of Stop & Glo reagent (Promega) was added, and luminescence also measured for 10 seconds. LSF transactivation activity is given as relative luciferase activity, the ratio of firefly to renilla activities.
NIH-3T3 cells were cultured at 37° C. in 5% CO2 in DMEM (Dulbecco's modification of Eagle's Medium; Corning) supplemented with 10% FCS (FCS; Atlanta Biologicals). Approximately 24 hours prior to transfection, 200,000 cells were plated in 35 mm dishes. After 24 hours, cells were ˜70% confluent, and were transfected for 5 hours with pEF1α-LSF, the reporter construct pGL3B-WT4E1b, phRLTK, and pEFGP (Grant, T. J. et al. Antiproliferative small-molecule inhibitors of transcription factor LSF reveal oncogene addiction to LSF in hepatocellular carcinoma. PNAS (2012), 109, 1-6). Vehicle (DMSO) or FQI-34 was then added, keeping the DMSO at 0.5%. Cell extracts were harvested 36 h post-transfection, and firefly and renilla luciferase activities were measured via a dual luciferase assay (Promega Dual-Luciferase Reporter Assay System). Relative luciferase activity represents firefly luciferase activity normalized to that of renilla luciferase in each extract. IC50 values were determined from plots of normalized luciferase activity vs. compound concentration (Prism GraphPad; non-linear regression 4-parameter curve fit with variable slope).

A further assay concerns QGY-7703 HCC cells. Description: HCC cell viability (MTT), QGY-7703. The following applies: in words. The method, then:
as §1

The next assay deals with cancer cell lines. Description: Inhibition of growth of cancer cell lines in vitro (FIGS. 9 and 10). The following applies: 0.2-33 μM. The method, then: FIG. 9A-9K show the results of inhibition of growth of cancer cell lines in vitro by FQI1 (Formula (IV)). The effect of inhibition of cell growth (represented as a fraction of 1) of increasing concentrations of FQI1 between 0.2-33 μM is shown.
The effect of inhibition of cell growth (represented as a fraction of 1) of increasing concentrations of FQI2 between 0.2-33 μM is shown.

The test system of the next assay is QGY-7703 cells. Put plainly: Cell viability GI50 (MTS), QGY-7703. Conditions: Homo sapiens. The method, then: as §2
Setting [1] is: Table 3, read-out: GI50 (μM) NIH 3T3.
The mark [2] stands for this setting: 72 h, MTS, read-out: GI50 (μM) NIH/3T3.

Molecules are shown by their SMILES. Like-named read-outs stand apart in the source and are kept apart here.

In the case of `COc1ccc(C2CC(=O)Nc3cc4c(cc32)OCO4)cc1` (stereo not drawn) [FQI19, 8-(4-methoxyphenyl)-7,8-dihydro-[1,3]dioxolo[4,5-g]quinolin-6(5H)-one], the IC50 with NIH/3T3 cells, with HeLa cells and with A549 cells was more than 200 µM each time.

Take `COc1ccccc1C1CC(=O)Nc2cc3c(cc21)OCO3` (stereo not drawn) [FQI12, 8-(2-methoxyphenyl)-7,8-dihydro-[1,3]dioxolo[4,5-g]quinolin-6(5H)-one]: the GI50 in the assay on NIH/3T3 cells (setting [1]) amounted to 4 ± 0.8 µM. Moreover, the IC50 on LSF was 3 to 4 µM.

In the case of `COc1ccccc1C1CC(=O)Nc2cc3c(cc21)OC(F)(F)O3` (stereo not drawn) [FQI13, 2,2-difluoro-8-(2-methoxyphenyl)-7,8-dihydro-[1,3]dioxolo[4,5-g]quinolin-6(5H)-one], the results for the IC50 in the assay with NIH/3T3 cells, in the assay with HeLa cells and in the assay with A549 cells were 72 ± 9.8 µM, 8.8 ± 1.4 µM and more than 300 µM, respectively.

In the case of `CCCOc1ccccc1C1CC(=O)Nc2cc3c(cc21)OCO3` (stereo not drawn) [FQI16, 8-(2-propoxyphenyl)-7,8-dihydro-[1,3]dioxolo[4,5-g]quinolin-6(5H)-one], the GI50 with NIH/3T3 cells (setting [1]) was determined as 2.3 ± 0.5 µM. Besides, the IC50 at LSF lay within 2 to 4 µM.

Take `CCOc1ccccc1-c1cc(=O)[nH]c2cc3c(cc12)OCO3` [FQI2, 8-(2-ethoxyphenyl)-[1,3]dioxolo[4,5-g]quinolin-6(5H)-one]: the GI50 in the assay with NIH/3T3 cells (setting [2]) came to 0.71 ± 0.13 µM; in the assay on NIH/3T3 cells (setting [1]), 0.71 ± 0.13 µM; with HeLa cells it was 0.4 ± 0.04 µM; with A549 cells it was 1.9 ± 0.9 µM. The “antiproliferative activity relative to comparator” value in the assay on NIH/3T3 cells was “as active as (S)-FQI1”. The “cellular proliferation of QGY-7703 cells (MTT)” value with QGY-7703 HCC cells is reported as “decreased overall cellular proliferation”. In the assay on cancer cell lines, the “growth of a variety of cancers, in vitro cell assay” value is listed as “inhibit the growth of a variety of cancers”. Moreover, the IC50 at LSF was determined as 0.8 µM. On LSF, the “activity in the LSF luciferase reporter assay relative to comparator” value is given as “as effective as the (S)-enantiomer”.

As for `COc1ccc(C2CC(=O)Nc3ccc(OC)cc32)cc1` (stereo not drawn) [FQI21, 6-methoxy-4-(4-methoxyphenyl)-3,4-dihydroquinolin-2(1H)-one], the results for the IC50 in the assay with NIH/3T3 cells, with HeLa cells and in the assay with A549 cells were more than 200 µM, 67 ± 9.9 µM and more than 200 µM, respectively.

With `COc1ccc2c(c1)C(c1ccccc1OC)CC(=O)N2` (stereo not drawn) [FQI14, 6-methoxy-4-(2-methoxyphenyl)-3,4-dihydroquinolin-2(1H)-one], in the assay on A549 cells, the IC50 was more than 10000 µM.

`COc1ccccc1C1CC(=O)Nc2cc(OC)c(OC)c(OC)c21` (stereo not drawn) [FQI15, 5,6,7-trimethoxy-4-(2-methoxyphenyl)-3,4-dihydroquinolin-2(1H)-one]: the IC50 in the assay on NIH/3T3 cells, in the assay on HeLa cells and in the assay with A549 cells was more than 200 µM throughout.

Regarding `CCOc1ccccc1C1CC(=O)Nc2cc3c(cc21)OC(F)(F)O3` (stereo not drawn) [FQI9, 8-(2-ethoxyphenyl)-2,2-difluoro-7,8-dihydro-[1,3]dioxolo[4,5-g]quinolin-6(5H)-one], the IC50 was 30 ± 3.5 µM with NIH/3T3 cells, 6.6 ± 1.2 µM with HeLa cells and more than 300 µM in the assay on A549 cells.

As for `CCOc1ccccc1[C@H]1CC(=O)Nc2cc3c(cc21)OCO3` [(S)-FQI1], the GI50 in the assay on NIH/3T3 cells (setting [2]) was found to be 1.1 ± 0.41 µM; in the assay with NIH/3T3 cells (setting [1]), 1.1 ± 0.4 µM; with HeLa cells, 0.3 ± 0.03 µM; in the assay with A549 cells, 3 ± 1.3 µM. Besides, the IC50 in the assay on NIH/3T3 cells came out at 1.1 ± 0.45 µM; in the assay on HeLa cells it was 0.3 ± 0.025 µM; in the assay on A549 cells it was 3 ± 1.3 µM; on LSF, 0.8 µM. In addition, in the assay on NIH/3T3 cells, the “antiproliferative activity relative to comparator” value is listed as “at least twice as active”. Moreover, the “fold more active than the racemate in the luciferase reporter assay” value at LSF (versus racemic FQI1) is on record as “approximately 3 fold”.

Turning to `CCOc1ccccc1C1CC(=O)Nc2cc(OC)c(OC)c(OC)c21` (stereo not drawn) [FQI11, 4-(2-ethoxyphenyl)-5,6,7-trimethoxy-3,4-dihydroquinolin-2(1H)-one], the IC50 in the assay on NIH/3T3 cells, in the assay with HeLa cells and in the assay on A549 cells was more than 200 µM each time.

Regarding `CCCCOc1ccccc1C1CC(=O)Nc2cc3c(cc21)OCO3` (stereo not drawn) [FQI3, 8-(2-Butoxyphenyl)-7,8-dihydro-[1,3]dioxolo[4,5-g]quinolin-6(5H)-one], in the assay on NIH/3T3 cells (setting [1]), the GI50 was 2.6 ± 0.5 µM. For the same molecule, the IC50 on LSF fell in the range of 3 to 5 µM.

As for `CCOCCOCCOCCCc1ccc(C2CC(=O)Nc3cc4c(cc32)OCO4)c(OCC)c1` (stereo not drawn) [PEG-FQI], the GI50 was more than 10 µM with QGY-7703 cells (Table 5, read-out: QGY-7703 GI50) and more than 10 µM with QGY-7703 cells (Table 8, read-out: QGY-7703 GI50).

With `CCOc1ccccc1[C@@H]1CC(=O)Nc2cc3c(cc21)OCO3` [(R)-FQI1], the GI50 in the assay on NIH/3T3 cells (setting [2]) came out at 45 ± 7 µM; in the assay on HeLa cells it was 8 ± 1 µM; with A549 cells, 18 ± 3.2 µM. The IC50 is 45 ± 6.9 µM in the assay with NIH/3T3 cells, 8 ± 1 µM with HeLa cells and 18 ± 3.2 µM in the assay on A549 cells. In addition, the “times less active than FQI1 in cell proliferation assays” value in the assay with NIH/3T3 cells (NIH/3T3, HeLa and A549) was approximately 10 times. For the same molecule, on LSF, the “activity in the LSF luciferase reporter assay relative to comparator” value was “much less active than the racemate”.
